Where two headings read alike, the source gives them in different places. Values belong to the compound of their own block, whether it stands above or below them.
Legend:
[1] = test system: hmGlu1; parameters: method as in PMID 30116027, PMID 34731619, PMID 35643819, PMID 25137254, PMID 11606768; conditions: Figure 1; read-out: hmGlu1 PAM EC50; cited from earlier work
[2] = test system: mGlu4; parameters: method as in PMID 30116027, PMID 34731619, PMID 35643819, PMID 25137254, PMID 11606768; conditions: Figure 1; cited from earlier work
[3] = target: dog mGlu1 (Canis lupus familiaris, UniProt A0A8I3NTE8); test: mGlu1 PAM assay, dog receptor; type: cell-based
Chain of dog mGlu1 (A0A8I3NTE8 30-1195): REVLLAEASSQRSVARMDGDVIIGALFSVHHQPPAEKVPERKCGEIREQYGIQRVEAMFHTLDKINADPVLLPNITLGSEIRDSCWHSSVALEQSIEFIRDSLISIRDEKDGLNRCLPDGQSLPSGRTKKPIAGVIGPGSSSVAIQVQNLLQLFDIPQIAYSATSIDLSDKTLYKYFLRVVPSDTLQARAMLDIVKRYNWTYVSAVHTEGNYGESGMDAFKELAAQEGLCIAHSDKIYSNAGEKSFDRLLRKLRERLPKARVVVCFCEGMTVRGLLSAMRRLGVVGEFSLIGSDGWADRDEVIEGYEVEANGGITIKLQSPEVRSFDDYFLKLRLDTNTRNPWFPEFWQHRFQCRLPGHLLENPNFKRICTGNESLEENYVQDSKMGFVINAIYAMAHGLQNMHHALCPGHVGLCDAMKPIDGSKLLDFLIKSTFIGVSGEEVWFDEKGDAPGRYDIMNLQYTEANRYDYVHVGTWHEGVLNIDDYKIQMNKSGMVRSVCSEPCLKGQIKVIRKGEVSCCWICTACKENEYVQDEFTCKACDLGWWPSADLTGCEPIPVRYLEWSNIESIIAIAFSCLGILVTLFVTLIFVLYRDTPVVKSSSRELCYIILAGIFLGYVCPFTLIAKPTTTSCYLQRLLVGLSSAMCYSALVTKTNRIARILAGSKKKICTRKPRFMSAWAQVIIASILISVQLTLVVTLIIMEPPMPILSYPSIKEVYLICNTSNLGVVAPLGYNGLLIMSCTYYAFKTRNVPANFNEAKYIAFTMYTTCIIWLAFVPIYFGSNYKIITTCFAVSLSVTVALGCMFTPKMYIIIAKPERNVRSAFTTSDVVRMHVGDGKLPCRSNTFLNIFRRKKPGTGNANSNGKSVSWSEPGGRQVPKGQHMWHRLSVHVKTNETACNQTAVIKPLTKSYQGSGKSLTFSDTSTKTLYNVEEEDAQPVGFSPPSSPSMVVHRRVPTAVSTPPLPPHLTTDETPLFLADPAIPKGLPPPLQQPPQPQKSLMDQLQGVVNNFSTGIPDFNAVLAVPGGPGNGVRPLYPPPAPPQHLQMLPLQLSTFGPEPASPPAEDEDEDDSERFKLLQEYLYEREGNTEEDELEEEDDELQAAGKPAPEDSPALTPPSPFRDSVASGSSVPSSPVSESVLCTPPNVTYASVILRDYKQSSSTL

[4] = IV dog PK; type: in vivo; conditions: male, beagle, plasma, 0.5 mg/kg IV; for C0: iv, 0.5 mg/kg
Method: (§1) Deeper profiling began with IV dog PK (0.5 mg/kg, n = 3 male beagles). […] Was this a mechanism-based toxicity in dog? Could there be dog-specific pharmacology of mGlu1 activation? Were these AEs derived from the 19d chemotype? Could a mGlu1/mGlu5 heterodimer be responsible for the observed AEs? […] In an attempt to address the chemotype question, we evaluated PAM 4 (VU6004909),[8] an early generation rodent in vivo tool compound, for the first time in dog PK. […] of the study with 19d, PAM 4 produced no AEs in dog. […] Therefore, more molecular pharmacology and PK studies as well as additional chemically distinct mGlu1 PAM chemotypes are required to understand the AEs elicited by an mGlu1 PAM in dogs, an otherwise very promising target for the treatment of schizophrenia.

[5] = test system: male beagles; test: adverse events in dog PK; type: in vivo; conditions: 0.5 mg/kg IV
Method: as §1

[6] = target: T1, human mGlu1 (Homo sapiens, UniProt Q13255); test: mGlu1 calcium mobilization (triple-add) PAM assay; type: cell-based; conditions: PAM, calcium flux, EC20 glutamate
T1 construct: expressed in transfected cells; pcDNA5/TO)
T1 sequence (Q13255 19-1194): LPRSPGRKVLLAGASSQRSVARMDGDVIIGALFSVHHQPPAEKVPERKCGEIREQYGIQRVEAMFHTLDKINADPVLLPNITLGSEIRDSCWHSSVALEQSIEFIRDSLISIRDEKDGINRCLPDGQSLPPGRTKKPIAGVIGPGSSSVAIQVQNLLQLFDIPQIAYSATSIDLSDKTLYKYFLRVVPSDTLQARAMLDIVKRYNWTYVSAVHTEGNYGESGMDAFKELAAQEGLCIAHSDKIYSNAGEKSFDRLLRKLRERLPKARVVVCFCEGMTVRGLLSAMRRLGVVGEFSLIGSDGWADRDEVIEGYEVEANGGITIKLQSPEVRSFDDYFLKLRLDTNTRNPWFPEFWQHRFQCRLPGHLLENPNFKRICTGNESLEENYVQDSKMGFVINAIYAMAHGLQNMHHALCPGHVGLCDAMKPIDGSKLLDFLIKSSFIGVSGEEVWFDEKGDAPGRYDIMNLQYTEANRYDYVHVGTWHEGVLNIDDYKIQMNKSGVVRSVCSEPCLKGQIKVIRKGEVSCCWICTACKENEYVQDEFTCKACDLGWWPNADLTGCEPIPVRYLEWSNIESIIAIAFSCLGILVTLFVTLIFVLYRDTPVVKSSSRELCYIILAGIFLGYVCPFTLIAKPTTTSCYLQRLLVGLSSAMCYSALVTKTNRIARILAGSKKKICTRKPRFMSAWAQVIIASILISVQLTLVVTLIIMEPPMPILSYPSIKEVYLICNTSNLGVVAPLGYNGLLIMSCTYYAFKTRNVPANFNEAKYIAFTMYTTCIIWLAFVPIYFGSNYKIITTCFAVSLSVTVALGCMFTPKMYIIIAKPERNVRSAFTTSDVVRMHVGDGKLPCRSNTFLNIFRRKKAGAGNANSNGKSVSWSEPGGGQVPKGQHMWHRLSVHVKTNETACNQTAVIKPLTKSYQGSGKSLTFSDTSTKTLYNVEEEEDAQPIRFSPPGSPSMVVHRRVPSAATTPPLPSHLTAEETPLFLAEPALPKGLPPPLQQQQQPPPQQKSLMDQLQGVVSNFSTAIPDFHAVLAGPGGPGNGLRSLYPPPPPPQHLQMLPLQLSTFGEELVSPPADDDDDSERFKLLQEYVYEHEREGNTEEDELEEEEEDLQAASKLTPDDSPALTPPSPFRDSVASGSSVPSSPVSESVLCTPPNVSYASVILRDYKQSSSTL
Method: Tetracycline-inducible human mGlu1 WT-T-REx-293 cells (Wu et al, Science 2014) were cultured at 37 °C in Dulbecco’s Modified Eagle Medium (DMEM) growth medium containing 10% Tet-tested FBS, 2 mM L-glutamine, 20 mM HEPES, 0.1 mM nonessential amino acids, 1 mM sodium pyruvate, antibiotic/antimycotic, 100 μg/mL hygromycin and 5 μg/mL blasticidin in the presence of 5% CO2. […] The mutant stable cell lines were generated in the same manner as the WT as previously described and cultured in the growth medium described above.
To determine the potency of mGlu1 PAMs in calcium assays, Ca flux was measured as previously described in ACS Chem. Bio. 2014, 9, 2334–2346. Briefly, the day before the assay, human mGlu1 WT-T-REx-293 cells were plated in black-walled, clear-bottomed, poly-D-lysine coated 96-well plates at 80,000 cells/100 μL assay medium (DMEM supplemented with 10% dialyzed FBS, 20 mM HEPES, and 1 mM sodium pyruvate) containing 50 ng/mL of tetracycline to induce mGlu1 expression. The next day, media was removed and the cells were incubated with 50 μL of 1.15 μM Fluo-4 AM dye solution prepared in assay buffer (buffer (Hank’s balanced salt solution, 20 mM HEPES, and 2.5 mM probenecid) for 45 min at 37 °C, the dye was removed and replaced with 45 μL of assay buffer. Then, calcium flux was measured using Flexstation II (Molecular Devices, Sunnyvale, CA). Compounds serially diluted at half log concentrations in DMSO were further diluted in assay buffer. The compounds or DMSO vehicle were added to cells and incubated for 2.5 min and an EC20 concentration of glutamate was added and incubated for 1 min. An ECmax concentration of glutamate was also added to cells that were incubated with DMSO vehicle to accurately calculate the EC20 calcium response. Data were normalized by subtracting the basal florescent peak before EC20 agonist addition from the maximal peak elicited by EC20 agonist and PAMs. Using GraphPad Prism 5.0, the concentration response curves were generated and the potencies of the mGlu1 PAMs were determined.

[7] = target: rat mGlu1 (Rattus norvegicus, UniProt P23385); test: mGlu1 calcium mobilization PAM assay; type: cell-based; conditions: PAM, calcium flux
Chain of rat mGlu1 (P23385 19-1199): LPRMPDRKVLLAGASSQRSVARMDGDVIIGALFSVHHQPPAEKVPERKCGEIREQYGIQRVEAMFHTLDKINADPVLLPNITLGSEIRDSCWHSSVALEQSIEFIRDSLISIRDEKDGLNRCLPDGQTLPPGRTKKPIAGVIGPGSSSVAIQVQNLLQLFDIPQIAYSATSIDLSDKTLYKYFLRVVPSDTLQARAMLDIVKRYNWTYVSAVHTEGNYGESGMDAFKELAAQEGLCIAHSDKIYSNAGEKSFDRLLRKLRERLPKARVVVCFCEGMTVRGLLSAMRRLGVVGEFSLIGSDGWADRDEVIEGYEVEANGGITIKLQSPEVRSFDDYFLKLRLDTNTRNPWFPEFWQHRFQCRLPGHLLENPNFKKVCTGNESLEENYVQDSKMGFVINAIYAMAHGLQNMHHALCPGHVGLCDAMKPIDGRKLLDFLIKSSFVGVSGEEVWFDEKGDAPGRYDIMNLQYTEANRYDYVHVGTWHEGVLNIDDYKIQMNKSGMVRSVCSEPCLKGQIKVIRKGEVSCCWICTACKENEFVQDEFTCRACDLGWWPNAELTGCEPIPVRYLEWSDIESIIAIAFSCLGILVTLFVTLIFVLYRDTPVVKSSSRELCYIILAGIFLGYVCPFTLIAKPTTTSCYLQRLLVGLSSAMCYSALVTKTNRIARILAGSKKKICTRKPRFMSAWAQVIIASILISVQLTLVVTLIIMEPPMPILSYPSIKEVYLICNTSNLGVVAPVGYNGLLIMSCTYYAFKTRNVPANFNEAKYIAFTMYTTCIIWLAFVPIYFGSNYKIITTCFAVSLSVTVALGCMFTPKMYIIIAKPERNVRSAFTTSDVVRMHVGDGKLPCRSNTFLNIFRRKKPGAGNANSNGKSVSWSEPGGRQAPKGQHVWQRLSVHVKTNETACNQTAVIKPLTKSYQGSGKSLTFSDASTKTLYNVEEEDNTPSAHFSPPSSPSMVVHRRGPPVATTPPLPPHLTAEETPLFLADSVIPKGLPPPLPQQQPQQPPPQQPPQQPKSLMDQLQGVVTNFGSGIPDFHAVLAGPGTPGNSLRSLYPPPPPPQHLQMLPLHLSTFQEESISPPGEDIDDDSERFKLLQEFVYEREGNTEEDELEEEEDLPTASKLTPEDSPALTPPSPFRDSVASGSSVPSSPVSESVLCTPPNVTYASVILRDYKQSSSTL

[8] = plasma protein binding, equilibrium dialysis; type: in vitro ADME, human; conditions: fraction unbound
Method: (§2) The protein binding of each compound was determined in plasma via equilibrium dialysis employing RED Plates (ThermoFisher Scientific, Rochester, NY). Plasma was added to the 96 well plate containing test compound and mixed thoroughly for a final concentration of 5 μM. Subsequently, an aliquot of the plasma-compound mixture was transferred to the cis chamber (red) of the RED plate, with an phosphate buffer (25 mM, pH 7.4) in the trans chamber. The RED plate was sealed and incubated for 4 h at 37 °C with shaking. At completion, aliquots from each chamber were diluted 1:1 with either plasma (cis) or buffer (trans) and transferred to a new 96 well plate, at which time ice-cold acetonitrile containing internal standard (50 ng/mL carbamazepine) (2 volumes) was added to extract the matrices. The plate was centrifuged (3000 rcf, 10 min) and supernatants transferred and diluted 1:1 (supernatant: water) into a new 96 well plate, which was then sealed in preparation for LC/MS/MS analysis. Each compound was assayed in triplicate within the same 96-well plate. Fraction unbound was determined using the following equation [drawing 1]

[9] = plasma protein binding, equilibrium dialysis; type: in vitro ADME, rat; conditions: fraction unbound
Method: as §2

[10] = brain homogenate binding; type: in vitro ADME, rat; conditions: fraction unbound
[11] = intrinsic clearance, predicted hepatic clearance; type: in vitro ADME, human; conditions: in vitro predicted hepatic clearance
Method: (§3) Human or rat hepatic microsomes (0.5 mg/mL) and 1 μM test compound were incubated in 100 mM potassium phosphate pH 7.4 buffer with 3 mM MgCl2 at 37 °C with constant shaking. After a 5 min preincubation, the reaction was initiated by addition of NADPH (1 mM). At selected time intervals (0, 3, 7, 15, 25, and 45 min), aliquots were taken and subsequently placed into a 96-well plate containing cold acetonitrile with internal standard (50 ng/mL carbamazepine). Plates were then centrifuged at 3000 rcf (4 °C) for 10 min, and the supernatant was transferred to a separate 96-well plate and diluted 1:1 with water for LC/MS/MS analysis. The in vitro half-life (T1/2, min, eq 1), intrinsic clearance (CLint, mL/min/kg, eq 2) and subsequent predicted hepatic clearance (CLhep, mL/min/kg, eq 3) was determined employing the following equations: [drawing 2] 1 where k represents the slope from linear regression analysis of the natural log percent remaining of test compound as a function of incubation time [drawing 3] 2
(§4) ^ascale-up factors: of 20 (human) or 45 (rat) [drawing 4] 3 where Qh (hepatic blood flow, mL/min/kg) is 21 (human) or 70 (rat).

[12] = intrinsic clearance, predicted hepatic clearance; type: in vitro ADME, rat; conditions: in vitro predicted hepatic clearance
Method: as §3, §4

[13] = rat IV plasma:brain level (PBL) PK; type: in vivo
[14] = test system: Sprague–Dawley rats; test: catalepsy (latency to withdraw); type: in vivo; conditions: rat, positive control, 1.5 mg/kg i.p.
Method: In order to enable our target validation work, we first profiled PAM 19d in a rat locomotor battery to ensure that pharmacodynamic efficacy was not mistaken for gross effects on locomotion.[20] […] PK was performed in parallel to establish a PK/PD relationship.[24]
Control rats were injected with 1.5 mg/kg of haloperidol i.p. (dissolved in 8% lactic acid and taken to volume of 50 mL with sterile water) and were returned to their home cage for 90 min. Cataleptic behavior is determined by placing the forelimbs on a bar raised 6 cm above the table and recording the amount of time it takes for the rat to withdraw the forelimbs with a cutoff of 60 s. Data are expressed as mean latency to withdraw + SEM or percent inhibition of catalepsy + SEM.

Compound: O=C(Nc1ccc(N2C(=O)c3cccc(Cl)c3C2=O)c(Cl)c1)c1ncccc1Cl [Compound 2]
EC50 [1]: 390 nM
selectivity vs. mGlu4 [2]: ~ 30 fold

Compound: Cc1ccoc1C(=O)Nc1ccc(N2C(=O)c3cccc(F)c3C2=O)c(Cl)c1 [Compound 3]
EC50 [1]: 32 nM
selectivity vs. mGlu4 [2]: ~ 35 fold

EC50 [3]: 400 nM
half-life [4]: 16.8 h
clearance ([4]; read-out: CLp): 14 mL/min/kg
Vd ([4]; read-out: Vss): 12 L/kg
C0 ([4]; read-out: C0 exposure, total): 1100 nM
C0 ([4]; read-out: C0 exposure, unbound): 36.4 nM
Compound: Cc1ccc2c(c1)C(=O)N(c1ccc(NC(=O)c3occc3C)c(F)c1)C2=O [Compound 4, reference compound]
adverse events (AEs) in dog [5]: no AEs
selectivity vs. mGlu4 [2]: ~ 790 fold

Compound: Cc1ccoc1C(=O)Nc1ccc(N2Cc3c(Cl)cccc3C2=O)c(Cl)c1 [Compound 5]
EC50 [1]: 211 nM
selectivity vs. mGlu4 [2]: ~ 50 fold

EC50 [6]: 51 nM
human mGlu1 Glumax [6]: 53%
EC50 [7]: 109 nM
rat mGlu1 Glumax [7]: 92%
human fuplasma [8]: 0.036
rat fuplasma [9]: 0.022
rat fubrain [10]: 0.021
CLhep, human [11]: 19.8 mL/min/kg
CLhep, rat [12]: 63.7 mL/min/kg
Kp at 15 min ([13]; Sprague-Dawley, 0.25 mg/kg/compound, rat IV PBL, brain:plasma): 0.27
clearance ([13]; Sprague-Dawley, plasma, intravenous, rat PK PBL experiment, read-out: CLp): 67.2 mL/min/kg
MRT ([13]; rat PK PBL experiment): 0.355 h
t1/2 ([13]; rat PK PBL experiment): 0.397 h
Compound: O=C(NCc1cnn2ccccc12)c1cc(-c2ccco2)ccc1Cl [Compound 9k, 2-Chloro-5-(furan-2-yl)-N-(pyrazolo[1,5-a]pyridin-3-ylmethyl)benzamide]

Compound: O=C(CCCN1CCC(O)(c2ccc(Cl)cc2)CC1)c1ccc(F)cc1 [haloperidol, reference compound]
catalepsy [14]: induced profound catalepsy

Reference: publication PMC11684029, “Discovery of VU6024578/BI02982816: An mGlu1 Positive Allosteric Modulator with Efficacy in Preclinical Antipsychotic and Cognition Models” (Journal of Medicinal Chemistry, 2024)
